Measured values: patent publication US11116732B2, “Carotenoid-containing cognitive function improving composition for use in exercise therapy for improving cognitive function” (ASTAREAL CO., LTD., priority 2016, dated 2021)

Legend:
[1] = in vivo; cited from earlier work
[2] = test system: hippocampal mRNA expression; assay: Hippocampal mRNA expression by RT-PCR; type: in vivo, mouse
Text: (§1) All the mice used in this experiment were divided so that the weight was equalized at the preliminary breeding end point. These were divided into three groups of placebo+rest (CON), placebo+low intensity exercise (ME), and low intensity exercise+0.5% ASX uptake (ME+ASX) (each n=8). Mice were bred each one per a cage.
(§2) The brain was removed two days after 4 weeks training and ASX uptake. The hippocampus was fractionated from the collected brain (Hirano M, Rakwal R, Shibato J, Sawa H, Nagashima K, Ogawa Y, Yoshida Y, Iwahashi H, Niki E, Masuo Y. Proteomics- and transcriptomics-based screening of differentially expressed proteins and genes in brain of Wig rat: a model for attention deficit hyperactivity disorder (ADHD) research. J Proteome Res 7: 2471-2489, 2008). The hippocampus was immediately frozen with liquid nitrogen and stored in a freezer at −80° C.
In order to confirm the reproducibility and validity of the molecular mechanism estimated by the microarray and IPA analysis, 12 genes were picked up and the changes in their gene expression were reexamined by RT-PCR.
All data were expressed as an average value±standard error. For statistical processing of RT-PCR, after one-way analysis of variance (One-way ANOVA), the Bonferroni's tests method was used as post-hoc. All the significance levels were set to less than 5%.

[3] = test system: hippocampal gene expression; assay: Hippocampal gene expression by DNA microarray and IPA network analysis; type: in vivo, mouse
Text: as §1
as §2, with “C. […]” for “C.”
3) Hybridization: Samples of fluorescently labeled control group (CON group) and experiment group (ME group, ME+ASX group) are assayed on the same Microarray chip and hybridized with a 60 base pair probe on the slide glass. […] In the program at this time, the color intensity of Cy3 and Cy5 of all the probes was measured. 6) Standardization of data: For standardization of data, LOWESS (locally weighted linear regression) was used, and logarithmic and logarithmic error rates standardized from Cy3 and Cy5 signals were calculated. […]

[4] = test system: nerve injury due to epilepsy; conditions: rat, in vivo; cited from earlier work
[5] = test system: neural progenitor cells; conditions: in vitro; cited from earlier work
[6] = test system: adult hippocampal neurogenesis (hippocampal dentate gyrus); assay: Adult hippocampal neurogenesis (AHN): immunohistochemical count of Ki67+, BrdU+ and BrdU+/NeuN+ cells after 4 weeks of ASX uptake with or without low intensity exercise; type: in vivo, mouse; conditions: for number of newly matured cells (BrdU+/NeuN+), rate of change relative to the CON group / number of proliferating cells (Ki67+), rate of change relative to the CON group / number of viable cells (BrdU+), rate of change relative to the CON group: 4 weeks
Text: (§3) For the purpose of clarifying whether or not hippocampal function improving effect is enhanced by low intensity exercise, influence of combined use of low intensity exercise (7 m/min) of VT or less and ASX uptake (0.5% by weight) on AHN and spatial cognitive function was investigated.
as §1, with “four” for “three”, “(ME), 0.5% ASX uptake+rest (ASX),” for “(ME),”, “and the” for “and”, “(FIG. 5).” for “(each n=8).”
0.5% ASX uptake or placebo uptake was carried out.
The mice in the low intensity exercise group imposed a treadmill running exercise of 7 m/min for 30 minutes a day. Also, the mice in the rest group were placed on the treadmill for equal time with the running exercise training and were not allowed to exercise anything (control experiment). For the running exercise training, a treadmill for small animals (KN-73, Natsume, Japan) was used. In either of the groups, training or control experiment was imposed once a day in the dark period, which became active for mice.
BrdU (bromodeoxyuridine) is taken up as an analog molecule of thymidine into the cell nucleus at the S phase of the cell cycle and is used to evaluate cell division, proliferation, and subsequent survival. Thus, BrdU (100 mg/kg BW) was intraperitoneally administered to all mice during three days before starting running exercise and 0.5% ASX uptake (FIG. 5). Administration was carried out only once a day (AM8:00).
Immunohistochemical staining method is a method of labeling and visualizing a target DNA or protein on a tissue utilizing an antigen antibody reaction. In visualization, it is carried out by labelling an enzyme or a fluorescent substance, etc., which is a substance to be a marker, to an antibody which bounds to an antigen, and reacting with the marker to colorize the antibody adhered portion. In this experiment, fluorescent antibody method was used for evaluation of proliferating cells, viable cells and newly matured neurons.
In this experiment, BrdU was identified for the evaluation of neoplastic cells. For identification, rat anti-BrdU antibody (Rat anti-BrdU, AbD Serotec) was used as a primary antibody and CyTM3 donkey anti-rat IgG antibody (Cy3 Donkey Anti-Rat IgG, JACKSON) was used as a secondary antibody to fluorescently label with red color and visualized. In addition, for identification of mature neurons, mouse anti-NeuN antibody (Mouse Anti-Neuronal Nuclei monoclonal antibody, Chemicon) was used as a primary antibody, and for visualization, a fluorescently labeled secondary antibody AMCA donkey anti-mouse IgG antibody (AMCA Donkey Anti-Mouse IgG, JACKSON) was used and stained to blue color.
According to this procedure, newly matured cells were evaluated by BrdU+/NeuN+ reaction (red+bluish white). The procedures of the fluorescent antibody method were shown below.
In this experiment, for evaluation of cell proliferation, it was identified by Ki67. For identification, rabbit anti-Ki67 antibody (Rabbit anti-Ki67, Abcam) was used as a primary antibody, and Alexa 555 anti-rabbit IgG antibody (Goat Alexa 555 anti-rabbit IgG, Biotium) was used as a secondary antibody to fluorescently label with red color and visualized. In addition, for identification of the matured neurons, mouse anti-NeuN antibody (Mouse Anti-Neuronal Nuclei monoclonal antibody, Chemicon) was used as a primary antibody, and for visualization, a fluorescently labeled secondary antibody AMCA donkey anti-mouse IgG antibody (AMCA Donkey Anti-Mouse IgG, JACKSON) was used and stained to blue color. According to this procedure, newly matured cells were evaluated by Ki67+/NeuN+reaction (red+bluish white). The procedures of the fluorescent antibody method were shown below.
All data were expressed as an average value±standard error of each sample. […]

[7] = test system: spatial learning memory ability; assay: Morris water maze (MWM): place learning escape training and probe test; type: in vivo, mouse; conditions: for escape time during place learning escape training: P<0.05
Text: as §3
as §1, with “four” for “three”, “(ME), 0.5% ASX uptake+rest (ASX),” for “(ME),”, “and the” for “and”, “(FIG. 5).” for “(each n=8).”
2-11. Evaluation of Spatial Learning Memory Ability: Morris Water Maze (MWM)
Evaluation of spatial learning memory ability was carried out.
Here, in order to clarify whether or not improvement of the hippocampal function due to the low intensity exercise is enhanced by ASX uptake, influence of combined use of the low intensity exercise of VT or less and 0.5% ASX uptake on AHN and spatial learning memory ability was investigated. For the evaluation of AHN, the numbers of proliferating cells (Ki67+), viable cells (BrdU+), and newly matured cells (BrdU+/NeuN+) were counted using immunohistochemical staining method and the result thereof was shown by the rate of change relative to the CON group. Also, the spatial learning memory ability was evaluated using the MWM with regard to acquiring ability (learning) of memory by the place learning escape training for 4 days, and retention and recollection ability of memory by the probe test on the fifth day.

[8] = ASX group compared with the CON group, P<0.05
[9] = ASX group: 0.5% ASX uptake + rest
[10] = ME+ASX group: low intensity exercise (7 m/min) + 0.5% ASX uptake

For CC1=C(/C=C/C(C)=C/C=C/C(C)=C/C=C/C=C(C)/C=C/C=C(C)/C=C/C2=C(C)C(=O)[C@@H](O)CC2(C)C)C(C)(C)C[C@H](O)C1=O [ASX, astaxanthin], the “passage through the blood brain barrier” value [1] is listed as “moves through the blood brain barrier into the brain”, the “mRNA expression of Cxcr4, Stat3, Mapk1 and Jak2” value ([2]; ME+ASX group (also in the ME group)) is listed as “significantly increased” and the “mRNA expression of Psen1, Notch2, Igflr, Igfl, Pi3k and Creb” value ([2]; only in the ME+ASX group) is listed as “increased significantly”. The “Igflr (insulin-like growth factor 1 receptor) gene expression (IPA network analysis)” value ([3]; ME+ASX group only) was “estimated to enhance”, the “Lep and Cxcr4 gene expression (IPA network analysis)” value ([3]; ME+ASX group, similar to the ME group) was “enhancement” and the “protection against nerve injury due to epilepsy” value [4] was “protect against nerve injury due to epilepsy”. For the same compound, the “proliferation of neural progenitor cells” value [5] was “enhances the proliferation of neural progenitor cells”, the “number of BrdU positive cells” value [6, 8] was “significant increase” and the “number of BrdU/NeuN positive cells” value [6, 8] was “significant increase”. For the same compound, the “number of Ki67 positive cells” value [6, 8] was “significant increase”, the “number of newly matured cells (BrdU+/NeuN+), rate of change relative to the CON group” value [6, 9] was “+46.3%” and the “number of proliferating cells (Ki67+), rate of change relative to the CON group” value [6, 9] was “+16.9%”. The “number of viable cells (BrdU+), rate of change relative to the CON group” value [6, 9] was “+44.9%”, the “effect of the combination of low intensity exercise and ASX uptake on AHN and hippocampal function, against the sum of the ME group and the ASX group” value ([6]; ME+ASX group) was “synergistically increases” and the “number of Ki67 positive cells” value ([6]; ME+ASX group compared with the ME group and the ASX group, P<0.001) was “significant increase”. For the same compound, the “number of BrdU positive cells” value ([6]; ME+ASX group compared with the ME group and the ASX group, P<0.05) was “significant increase”, the “number of newly matured cells (BrdU+/NeuN+), rate of change relative to the CON group” value [6, 10] was “+102.9%” and the “number of proliferating cells (Ki67+), rate of change relative to the CON group” value [6, 10] was “+52.3%”. For the same compound, the “number of viable cells (BrdU+), rate of change relative to the CON group” value [6, 10] was “+95.7%”, the “spatial memory capacity, increase rate for the CON group” value ([7]; ASX group) was 25.9% and the “result of the MWM” value ([7]; ASX group, 0.5% ASX uptake) was “significantly improved”. The “escape time during place learning escape training” value ([7]; ASX group, fourth day) was “significant shortening”, the “probe test: ratio of the cumulative time of swimming within the quadrant where the platform existed to the total swimming time” value [7, 9] was 30.5% and the “spatial memory capacity, increase rate for the CON group” value ([7]; ME+ASX group) was 60.6%. For the same compound, the “escape time during place learning escape training” value ([7]; ME+ASX group compared with the CON, third day) was “significant shortening”, the “probe test: ratio of the cumulative time of swimming within the quadrant where the platform existed to the total swimming time” value ([7]; ME+ASX group: low intensity exercise + 0.5% ASX uptake) was 39.9% and the swimming speed ([7]; among the groups (CON, ME, ASX, ME+ASX)) was “no significant difference”.
